≈ marks a conversion by molar mass, not a printed value. Calls of active or inactive are those of the source. The rule behind the calls is not given here.
Legend:
[1] = Clearance in Sprague-Dawley rat at 2 mg/kg,iv measured at 0.083 to 24 hrs post administration by LC-MS/MS analysis; format: ADME, organism-based; details: in vivo, time 0.083-24 hrs
[2] = Cmax in Sprague-Dawley rat at 10 mg/kg,po measured at 0.083 to 24 hrs post administration by LC-MS/MS analysis; format: ADME, organism-based; details: Sprague-Dawley, in vivo, time 0.083-24 hrs, read-out: Cmax
[3] = Apparent volume of distribution at steady state in CD-1 mouse at 2 mg/kg,iv measured at 0.083 to 24 hrs post administration by LC-MS/MS analysis; format: ADME, organism-based; details: in vivo, time 0.083-24 hrs, read-out: Vdss(app)
[4] = Half life in CD-1 mouse at 2 mg/kg,iv measured at 0.083 to 24 hrs post administration by LC-MS/MS analysis; format: ADME, organism-based; details: in vivo, time 0.083-24 hrs
[5] = Cmax in CD-1 mouse at 2 mg/kg,iv measured at 0.083 to 24 hrs post administration by LC-MS/MS analysis; format: ADME, organism-based; details: in vivo, time 0.083-24 hrs
[6] = AUCinfinity in CD-1 mouse at 2 mg/kg,iv measured at 0.083 to 24 hrs post administration by LC-MS/MS analysis; format: ADME, organism-based; details: in vivo, time 0.083-24 hrs
[7] = Drug accumulation in CD-1 mouse plasma assessed as fold change in drug uptake at 10 mg/kg,po measured at 0.083 to 24 hrs post administration by LC-MS/MS analysis; format: ADME, organism-based; details: in vivo, time 0.083-24 hrs
[8] = Drug accumulation in CD-1 mouse liver assessed as fold change in drug uptake at 10 mg/kg,po measured at 0.083 to 24 hrs post administration by LC-MS/MS analysis; format: ADME, organism-based; details: in vivo, time 0.083-24 hrs
[9] = Apparent volume of distribution at steady state in Sprague-Dawley rat at 2 mg/kg,iv measured at 0.083 to 24 hrs post administration by LC-MS/MS analysis; format: ADME, organism-based; details: in vivo, time 0.083-24 hrs, read-out: Vdss(app)
[10] = Half life in Sprague-Dawley rat at 2 mg/kg,iv measured at 0.083 to 24 hrs post administration by LC-MS/MS analysis; format: ADME, organism-based; details: in vivo, time 0.083-24 hrs
[11] = Cmax in Sprague-Dawley rat at 2 mg/kg,iv measured at 0.083 to 24 hrs post administration by LC-MS/MS analysis; format: ADME, organism-based; details: in vivo, time 0.083-24 hrs
[12] = AUCinfinity in Sprague-Dawley rat at 2 mg/kg,iv measured at 0.083 to 24 hrs post administration by LC-MS/MS analysis; format: ADME, organism-based; details: Sprague-Dawley, in vivo, time 0.083-24 hrs
[13] = Drug accumulation in Sprague-Dawley rat plasma assessed as fold change in drug uptake at 10 mg/kg,po measured at 0.083 to 24 hrs post administration by LC-MS/MS analysis; format: ADME, organism-based; details: in vivo, time 0.083-24 hrs
[14] = Drug accumulation in Sprague-Dawley rat liver assessed as fold change in drug uptake at 10 mg/kg,po measured at 0.083 to 24 hrs post administration by LC-MS/MS analysis; format: ADME, organism-based; details: in vivo, time 0.083-24 hrs
Cytochrome P450 2B6 = target: T1, Cytochrome P450 2B6 (Homo sapiens, UniProt P20813); test: Reversible inhibition of CYP2B6 in human liver microsomes using bupropion as substrate pre-incubated for 30 mins followed by NADPH addition and measured after 10 mins by LC-MS/MS analysis; format: ADME, Microsome
T1 sequence (P20813 whole entry): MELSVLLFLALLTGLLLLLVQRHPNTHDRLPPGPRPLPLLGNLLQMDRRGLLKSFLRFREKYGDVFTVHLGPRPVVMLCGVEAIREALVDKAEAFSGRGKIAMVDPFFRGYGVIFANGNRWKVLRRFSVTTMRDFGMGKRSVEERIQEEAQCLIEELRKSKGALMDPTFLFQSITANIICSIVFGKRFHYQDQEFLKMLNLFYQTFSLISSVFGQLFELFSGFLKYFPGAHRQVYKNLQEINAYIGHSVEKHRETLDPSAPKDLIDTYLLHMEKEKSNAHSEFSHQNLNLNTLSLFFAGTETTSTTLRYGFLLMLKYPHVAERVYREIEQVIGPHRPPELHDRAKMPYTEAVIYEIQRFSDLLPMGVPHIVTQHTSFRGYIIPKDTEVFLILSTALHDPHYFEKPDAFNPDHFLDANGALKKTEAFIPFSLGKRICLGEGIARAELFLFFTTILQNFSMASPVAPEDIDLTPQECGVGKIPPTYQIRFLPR

[15] = Cmax in Beagle dog at 2 mg/kg,iv measured at 0.083 to 24 hrs post administration by LC-MS/MS analysis; format: ADME, organism-based, Canis lupus familiaris; details: in vivo, time 0.083-24 hrs
[16] = Cardiotoxicity in Langendorff-perfused New Zealand White rabbit heart assessed as increase in PR interval incubated for 45 mins by ECG analysis; format: toxicity, tissue-based, Oryctolagus cuniculus; details: 0.75 h
[17] = Cardiotoxicity in Langendorff-perfused New Zealand White rabbit heart assessed as increase in QRS interval incubated for 45 mins by ECG analysis; format: toxicity, tissue-based, Oryctolagus cuniculus; details: 0.75 h
HepG2 2.2.15 = test: Cytotoxicity against human HepG2.2.15 cells by Cell-titer Glo luminescent assay; format: functional
[18] = Kinetic solubility of compound in PBS at pH 4 incubated for 24 hrs by UPLC-UV analysis; format: physicochemical; details: read-out: Kinetic_solubility
Cytochrome P450 2C9 = Cytochrome P450 2C9 (Homo sapiens, UniProt P11712); test: Reversible inhibition of CYP2C9 in human liver microsomes using diclofenac as substrate pre-incubated for 30 mins followed by NADPH addition and measured after 10 mins by LC-MS/MS analysis; format: ADME, Microsome
Sequence of Cytochrome P450 2C9 (P11712 whole entry): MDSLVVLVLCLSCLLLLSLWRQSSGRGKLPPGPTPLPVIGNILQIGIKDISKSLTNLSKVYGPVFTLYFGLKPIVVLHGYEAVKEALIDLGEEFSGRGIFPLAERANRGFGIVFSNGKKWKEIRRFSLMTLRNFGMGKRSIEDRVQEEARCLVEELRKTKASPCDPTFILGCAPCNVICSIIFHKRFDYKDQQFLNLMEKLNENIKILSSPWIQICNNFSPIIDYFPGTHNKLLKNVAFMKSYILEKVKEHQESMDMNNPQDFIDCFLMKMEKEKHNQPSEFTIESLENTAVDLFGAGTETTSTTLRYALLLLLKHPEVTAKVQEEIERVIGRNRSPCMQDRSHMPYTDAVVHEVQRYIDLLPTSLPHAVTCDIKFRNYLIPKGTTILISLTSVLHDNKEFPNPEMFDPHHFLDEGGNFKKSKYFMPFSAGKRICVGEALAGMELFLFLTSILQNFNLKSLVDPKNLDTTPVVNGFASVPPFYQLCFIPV

Cytochrome P450 2D6 = Cytochrome P450 2D6 (Homo sapiens, UniProt P10635); test: Reversible inhibition of CYP2D6 in human liver microsomes using dextromethorphan as substrate pre-incubated for 30 mins followed by NADPH addition and measured after 10 mins by LC-MS/MS analysis; format: ADME, Microsome
Sequence of Cytochrome P450 2D6 (P10635 whole entry): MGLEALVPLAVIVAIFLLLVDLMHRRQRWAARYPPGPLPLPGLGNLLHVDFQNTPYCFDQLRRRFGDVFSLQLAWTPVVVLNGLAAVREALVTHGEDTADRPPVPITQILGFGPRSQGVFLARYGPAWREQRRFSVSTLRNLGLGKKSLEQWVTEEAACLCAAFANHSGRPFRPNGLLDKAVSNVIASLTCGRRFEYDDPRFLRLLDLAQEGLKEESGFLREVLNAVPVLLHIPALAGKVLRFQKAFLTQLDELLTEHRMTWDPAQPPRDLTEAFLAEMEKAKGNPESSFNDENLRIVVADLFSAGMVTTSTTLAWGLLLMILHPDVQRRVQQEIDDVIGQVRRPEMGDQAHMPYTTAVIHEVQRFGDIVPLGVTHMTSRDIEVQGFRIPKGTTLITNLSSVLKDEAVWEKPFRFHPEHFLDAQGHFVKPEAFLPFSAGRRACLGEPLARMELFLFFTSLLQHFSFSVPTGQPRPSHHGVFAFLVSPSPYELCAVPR

Cytochrome P450 3A4 = Cytochrome P450 3A4 (Homo sapiens, UniProt P08684); test: Reversible inhibition of CYP3A4 in human liver microsomes using midazolam as substrate pre-incubated for 30 mins followed by NADPH addition and measured after 10 mins by LC-MS/MS analysis; format: ADME, Microsome
Sequence of Cytochrome P450 3A4 (P08684 whole entry): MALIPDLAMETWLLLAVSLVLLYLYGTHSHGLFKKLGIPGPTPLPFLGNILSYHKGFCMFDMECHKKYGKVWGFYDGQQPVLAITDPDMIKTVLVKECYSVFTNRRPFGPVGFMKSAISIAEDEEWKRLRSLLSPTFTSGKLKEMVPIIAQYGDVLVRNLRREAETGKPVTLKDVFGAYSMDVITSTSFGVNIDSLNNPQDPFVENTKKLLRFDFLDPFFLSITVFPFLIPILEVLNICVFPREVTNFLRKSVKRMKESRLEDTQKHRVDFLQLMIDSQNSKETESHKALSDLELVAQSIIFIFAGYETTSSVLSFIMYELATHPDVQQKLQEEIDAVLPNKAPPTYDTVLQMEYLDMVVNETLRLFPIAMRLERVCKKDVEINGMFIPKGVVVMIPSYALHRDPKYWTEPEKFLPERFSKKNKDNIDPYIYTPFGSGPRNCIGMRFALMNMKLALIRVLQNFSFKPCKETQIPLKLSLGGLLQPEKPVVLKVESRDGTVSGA

[19] = Efflux ratio of apparent permeability from […] in human Caco-2 cells incubated for 120 mins by LC-MS/MS analysis; format: ADME, cell-based; details: caco-2, 2 h
[20] = Clearance in Beagle dog at 2 mg/kg,iv measured at 0.083 to 24 hrs post administration by LC-MS/MS analysis; format: ADME, organism-based, Canis lupus familiaris; details: in vivo, time 0.083-24 hrs
[21] = Toxicity in dog assessed as NOAEL administrated for 28 days; design: species or system Canis lupus familiaris; details: in vivo, time 28 day
Hepatitis B virus [22] = test: Antiviral activity against AAV-Hepatitis B virus infected in C57BL/6 mouse assessed as serum HBsAg level at 30 mg/kg,po administrated once daily for 7 days by enzyme-linked immunoassay; format: functional; details: time 7 day
Hepatitis B virus [23] = test: Antiviral activity against AAV-Hepatitis B virus infected in C57BL/6 mouse assessed as liver HBsAg level at 3 to 30 mg/kg,po administrated once daily for 7 days by enzyme-linked immunoassay; format: functional, organism-based; details: dose 3-30 mg/kg, time 7.0 day
[24] = Drug accumulation in CD-1 mouse liver at 10 mg/kg,po measured at 0.083 to 24 hrs post administration by LC-MS/MS analysis; format: ADME, organism-based; details: in vivo, time 0.083-24 hrs
[25] = Tmax in Sprague-Dawley rat at 10 mg/kg,po measured at 0.083 to 24 hrs post administration by LC-MS/MS analysis; format: ADME, organism-based; details: Sprague-Dawley, in vivo, time 0.083-24 hrs, read-out: Tmax

Compound | clearance [1] | Cmax [2] | Vd [3] | half-life [4] | Cmax [5] | AUC(0-inf) [6] | fold change (FC) [7] | fold change (FC) [8] | Vd [9] | half-life [10] | Cmax [11] | AUC(0-inf) [12] | fold change (FC) [13] | fold change (FC) [14] | IC50 (Cytochrome P450 2B6) | Cmax [15] | Activity [16] | Activity [17] | CC50 (HepG2 2.2.15) | solubility kinetic at 24 h [18] | other results
COCCCOc1cc2c(cc1OC)-c1cc(=O)c(C(=O)O)cn1[C@H](C(C)C)C2 | 8.6 mL/min/kg | 1190 ng/mL | 1.2 L/kg | 1 h | 1150 ng/mL | 1280 ng·h/mL | < 1 | < 1 | 0.7 L/kg | 1.3 h | 4950 ng/mL | 4760 ng·h/mL | 3.4 | 12 | > 25 µM | 1500 ng/mL | Toxic | Toxic |  |  | 
COCCCOc1cc2c(nc1OC)-c1cc(=O)c(C(=O)O)cn1[C@H](C(C)C)C2 | 9.6 mL/min/kg | 1540 ng/mL | 1.5 L/kg | 0.9 h | 1180 ng/mL | 1150 ng·h/mL | 8.6 | 2.6 | 0.7 L/kg | 1.3 h | 3240 ng/mL | 3500 ng·h/mL | 8.7 | 28 | > 25 µM | 2310 ng/mL |  |  | > 50 µM | > 200 µM | IC50 (Cytochrome P450 2C9): > 25 µM; IC50 (Cytochrome P450 2D6): > 25 µM; IC50 (Cytochrome P450 3A4): > 25 µM; Ratio [19]: 3.8; clearance [20]: 5.4 mL/min/kg; NOAEL at 672 h [21]: 30 mg/kg; Activity (Hepatitis B virus [22]): 1.78 log10CFU; Activity (Hepatitis B virus [23]): Active
COCCCOc1cc2c(cc1Cl)-c1cc(=O)c(C(=O)O)cn1[C@H](C(C)C)CO2 |  |  |  |  |  |  |  |  |  |  |  |  |  |  | > 25 µM | 2060 ng/mL | Toxic | Toxic | 39 µM | 31 µM (≈ 13.1 µg/mL) | Ct [24]: 425 ng/g; Tmax [25]: 2.1 h; IC50 (Cytochrome P450 2C9): > 25 µM; IC50 (Cytochrome P450 2D6): > 25 µM; IC50 (Cytochrome P450 3A4): > 25 µM; Ratio [19]: 1.5; clearance [20]: 10 mL/min/kg

From ChEMBL document CHEMBL5537169, “Structure-Activity Relationships and Discovery of (S)-6-Isopropyl-2-methoxy-3-(3-methoxypropoxy)-10-oxo-5,10-dihydro-6H-pyrido[1,2-h][1,7]naphthyridine-9-carboxylic Acid (AB-452), a Novel Orally Available HBV RNA Destabilizer” (J Med Chem, 2024)
